Like-named read-outs stand apart in the source and are kept apart here.
Legend:
[1] = system: ovarian cancer cells (PA-1); test: Cancer cell line growth inhibition (SRB assay); assay type: cell-based; details: read-out: Cancer Cell Line GI50 Range PA-1
[2] = system: colon cancer cells (HCT116); test: Cancer cell line growth inhibition (SRB assay); assay type: cell-based; details: Homo sapiens, HCT-116, read-out: Cancer Cell Line GI50 Range HCT116
human TTK = target: T1, human TTK (Homo sapiens, UniProt P33981); test: TTK inhibition assay (indirect ELISA); assay type: biochemical
T1 construct: amino terminal GST fusion of full length human TTK; purchased Invitrogen
T1 sequence (P33981 1-857): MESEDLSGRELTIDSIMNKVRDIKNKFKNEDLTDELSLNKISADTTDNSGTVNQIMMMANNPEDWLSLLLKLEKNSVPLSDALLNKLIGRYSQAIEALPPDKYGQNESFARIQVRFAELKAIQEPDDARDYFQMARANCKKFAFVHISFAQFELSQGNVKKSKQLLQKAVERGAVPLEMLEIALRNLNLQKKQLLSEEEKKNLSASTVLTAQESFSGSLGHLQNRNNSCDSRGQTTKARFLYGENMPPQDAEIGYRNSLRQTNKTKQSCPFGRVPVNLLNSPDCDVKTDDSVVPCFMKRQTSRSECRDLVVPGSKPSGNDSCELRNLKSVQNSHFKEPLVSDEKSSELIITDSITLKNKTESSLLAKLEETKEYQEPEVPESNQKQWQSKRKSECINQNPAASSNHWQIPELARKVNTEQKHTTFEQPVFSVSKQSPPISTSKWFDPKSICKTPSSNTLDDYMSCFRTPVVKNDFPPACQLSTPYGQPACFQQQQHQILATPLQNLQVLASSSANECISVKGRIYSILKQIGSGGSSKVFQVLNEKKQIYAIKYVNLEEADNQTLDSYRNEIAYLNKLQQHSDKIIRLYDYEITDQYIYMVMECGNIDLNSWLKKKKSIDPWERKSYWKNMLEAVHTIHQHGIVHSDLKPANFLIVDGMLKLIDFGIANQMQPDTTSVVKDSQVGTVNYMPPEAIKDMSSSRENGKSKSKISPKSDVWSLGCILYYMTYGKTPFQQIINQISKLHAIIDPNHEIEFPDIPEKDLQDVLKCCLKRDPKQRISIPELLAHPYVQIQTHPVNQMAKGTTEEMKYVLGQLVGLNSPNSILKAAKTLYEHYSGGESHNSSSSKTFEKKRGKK

TICs (Ovarian 2393A) = test: Ovarian tumor-initiating cell growth inhibition (Alamar Blue); assay type: cell-based; details: 144 h, 6 days, read-out: Tumor Initiating Cell GI50 Range Ovarain 2393A
TICs (Colon 12) = test: Colon tumor-initiating cell growth inhibition (Alamar Blue); assay type: cell-based; details: 216 h, 9 days, read-out: Tumor Initiating Cell GI50 Range Colon 12
[3] = PA-1 ovarian cancer cells, SRB assay
[4] = HCT116 colon cancer cells, SRB assay

GI50 [1, 3] | GI50 [2, 4] | GI50 (TICs (Ovarian 2393A); ovarian TICs, Alamar Blue) | GI50 (TICs (Colon 12); colon TICs, Alamar Blue) | SMILES | GI50 ([1]; Homo sapiens, PA-1) | GI50 [2] | IC50 (human TTK; read-out: TTK IC50 Range) | GI50 (TICs (Ovarian 2393A); Ovarian 2393A TICs) | GI50 (TICs (Colon 12); Colon 12 TICs) | IC50 (human TTK)
– | – | – | – | O=CN1C2CCC1CC(Oc1ccc(-c3n[nH]c4ccc(C(=O)N[C@H](c5ccccc5)C5CC5)cc34)cc1)C2 (stereo partly drawn) [Example A328, N-((S)-cyclopropyl(phenyl)methyl)-3-(4-(((1R,3R,5S)-8-formyl-8-azabicyclo[3.2.1]octan-3-yl)oxy)phenyl)-1H-indazole-5-carboxamide] | < 100 nM | < 100 nM | < 100 nM | 100 to 500 nM | < 100 nM | –
– | – | – | – | O=CN1[C@@H]2CC[C@H]1C[C@@H](Oc1ccc(-c3n[nH]c4ccc(C(=O)NC(c5ccsc5)C5CCC5)cc34)cc1)C2 (stereo partly drawn) [Example A329, N-(cyclobutyl(thiophen-3-yl)methyl)-3-(4-(((1R,3R,5S)-8-formyl-8-azabicyclo[3.2.1]octan-3-yl)oxy)phenyl)-1H-indazole-5-carboxamide] | < 100 nM | < 100 nM | < 100 nM | < 100 nM | < 100 nM | –
– | – | – | – | CC(C)[C@H](NC(=O)c1ccc2[nH]nc(-c3ccc(OC4CCN(C5COC5)CC4)cc3)c2c1)c1ccccc1Cl [Example A332, (S)-N-(1-(2-chlorophenyl)-2-methylpropyl)-3-(4-((1-(oxetan-3-yl)piperidin-4-yl)oxy)phenyl)-1H-indazole-5-carboxamide] | < 100 nM | < 100 nM | < 100 nM | < 100 nM | < 100 nM | –
– | – | – | – | O=C(N[C@H](c1ccccc1Cl)C1CC1)c1ccc2[nH]nc(-c3ccc(OC4CC5CCC(C4)N5C4COC4)cc3)c2c1 (stereo partly drawn) [Example A349, N-((S)-(2-chlorophenyl)(cyclopropyl)methyl)-3-(4-(((1R,3R,5S)-8-(oxetan-3-yl)-8-azabicyclo[3.2.1]octan-3-yl)oxy)phenyl)-1H-indazole-5-carboxamide] | < 100 nM | < 100 nM | < 100 nM | < 100 nM | < 100 nM | –
– | – | – | – | O=CN1C2CCC1CC(Oc1ccc(-c3n[nH]c4ccc(C(=O)N[C@H](c5ccccc5Cl)C5CC5)cc34)cc1)C2 (stereo partly drawn) [Example A350, N-((S)-(2-chlorophenyl)(cyclopropyl)methyl)-3-(4-(((1R,3R,5S)-8-formyl-8-azabicyclo[3.2.1]octan-3-yl)oxy)phenyl)-1H-indazole-5-carboxamide] | < 100 nM | < 100 nM | < 100 nM | < 100 nM | < 100 nM | –
– | – | – | – | O=C(N[C@H](c1ccccn1)C1CC1)c1ccc2[nH]nc(-c3ccc(N4C5CCC4CC(O)C5)cc3)c2c1 (stereo partly drawn) [Example A361, N-((S)-cyclopropyl(pyridin-2-yl)methyl)-3-(4-((1R,3S,5S)-3-hydroxy-8-azabicyclo[3.2.1]octan-8-yl)phenyl)-1H-indazole-5-carboxamide] | < 100 nM | < 100 nM | – | < 100 nM | < 100 nM | < 100 nM
– | – | – | – | CC(C)[C@H](NC(=O)c1ccc2[nH]nc(-c3ccc(N4CCCN(C5COC5)CC4)cc3)c2c1)c1ccccc1Cl [Example A369, (S)-N-(1-(2-chlorophenyl)-2-methylpropyl)-3-(4-(4-(oxelan-3-yl)-1,4-diazepan-l-yl)phenyl)-1H-indazole-5-carboxamide] | < 100 nM | < 100 nM | < 100 nM | < 100 nM | < 100 nM | –
– | – | – | – | O=C(N[C@H](c1ccccn1)C1CC1)c1ccc2[nH]nc(-c3ccc(OC4CC5CCC(C4)N5)cc3)c2c1 (stereo partly drawn) [Example A374, 3-(4-((1R,3R,5S)-8-azabicyclo[3.2.1]octan-3-yloxy)phenyl)-N-((S)-cyclopropyl(pyridin-2-yl)methyl)-1H-indazole-5-carboxamide] | < 100 nM | < 100 nM | < 100 nM | 100 to 500 nM | > 500 nM | –
– | – | – | – | C[C@@H](O)C(=O)N1CCC(Oc2ccc(-c3n[nH]c4ccc(C(=O)N[C@H](c5ccccc5)C5CC5)cc34)cc2)CC1 [Example A379, N-((S)-cyclopropyl(phenyl)methyl)-3-(4-((1-((R)-2-hydroxypropanoyl)piperidin-4-yl)oxy)phenyl)-1H-indazole-5-carboxamide] | 100 to 500 nM | 100 to 500 nM | < 100 nM | 100 to 500 nM | < 100 nM | –
– | – | – | – | CN1[C@@H]2CC[C@H]1C[C@@H](Oc1ccc(-c3n[nH]c4ccc(C(=O)NC(c5ncccn5)C5CCCC5)cc34)cc1)C2 (stereo partly drawn) [Example A385, N-(cyclopentyl(pyrimidin-2-yl)methyl)-3-(4-(((1R,3R,5S)-8-methyl-8-azabicyclo[3.2.1]octan-3-yl)oxy)phenyl)-1H-indazole-5-carboxamide] | < 100 nM | < 100 nM | < 100 nM | < 100 nM | 100 to 500 nM | –
– | – | – | – | O=C(NC(c1ccccn1)C1CCCC1)c1ccc2[nH]nc(-c3ccc(N4CCN(C5COC5)CC4)cc3)c2c1 (centres unmarked) [Example A402, N-(cyclopentyl(pyridin-2-yl)methyl)-3-(4-(4-(oxetan-3-yl)piperazin-1-yl)phenyl)-1H-indazole-5-carboxamide] | < 100 nM | < 100 nM | < 100 nM | < 100 nM | < 100 nM | –
– | – | – | – | O=C(N[C@H](c1ccccn1)C1CCCC1)c1ccc2[nH]nc(-c3ccc(N4[C@@H]5CCC[C@H]4COC5)cc3)c2c1 [Example A418, 3-(4-((1R,5S)-3-oxa-9-azabicyclo[3.3.1]nonan-9-yl)phenyl)-N-((S)-cyclopentyl(pyridin-2-yl)methyl)-1H-indazole-5-carboxamide] | < 100 nM | < 100 nM | – | < 100 nM | < 100 nM | < 100 nM
– | – | – | – | O=C(N[C@@H](c1ccccn1)C1CC1)c1ccc2[nH]nc(-c3ccc(N4[C@@H]5CC[C@H]4COC5)cc3)c2c1 [Example A422, 3-(4-((1R,5S)-3-oxa-8-azabicyclo[3.2.1]octan-8-yl)phenyl)-N-((R)-cyclopropyl(pyridin-2-yl)methyl)-1H-indazole-5-carboxamide] | < 100 nM | < 100 nM | < 100 nM | 100 to 500 nM | < 100 nM | –
< 100 nM | < 100 nM | < 100 nM | < 100 nM | O=C(NCC1(N2CCOCC2)CCCCC1)c1ccc2[nH]nc(-c3ccc(N4CCOCC4)cc3)c2c1 [Example A447, N-((1-morpholinocyclohexyl)methyl)-3-(4-morpholinophenyl)-1H-indazole-5-carboxamide] | – | – | < 100 nM | – | – | –
< 100 nM | < 100 nM | 100 to 500 nM | < 100 nM | CN1CCN(c2ccc(-c3n[nH]c4ccc(C(=O)NCC5(N6CCOCC6)CCCCC5)cc34)cc2)CC1 [Example A453, 3-(4-(4-methylpiperazin-1-yl)phenyl)-N-((1-morpholinocyclohexyl)methyl)-1H-indazole-5-carboxamide] | – | – | < 100 nM | – | – | –
< 100 nM | < 100 nM | 100 to 500 nM | 100 to 500 nM | CN1CC[C@@H](Oc2ccc(-c3n[nH]c4ccc(C(=O)NCC5(N6CCOCC6)CCCCC5)cc34)cc2)[C@@H](F)C1 [Example A455, 3-(4-(((3S,4R)-3-fluoro-1-methylpiperidin-4-yl)oxy)phenyl)-N-((1-morpholinocyclohexyl)methyl)-1H-indazole-5-carboxamide] | – | – | < 100 nM | – | – | –
